We go through ten compounds from patent publication US8815852B2, “Carbamoyloxy arylalkan arylpiperazine analgesics” (SK Biopharmaceuticals Co., Ltd., priority 2007, dated 2014).

Structures are written as SMILES.

5-HT1A receptor, sequence (P19327 whole entry): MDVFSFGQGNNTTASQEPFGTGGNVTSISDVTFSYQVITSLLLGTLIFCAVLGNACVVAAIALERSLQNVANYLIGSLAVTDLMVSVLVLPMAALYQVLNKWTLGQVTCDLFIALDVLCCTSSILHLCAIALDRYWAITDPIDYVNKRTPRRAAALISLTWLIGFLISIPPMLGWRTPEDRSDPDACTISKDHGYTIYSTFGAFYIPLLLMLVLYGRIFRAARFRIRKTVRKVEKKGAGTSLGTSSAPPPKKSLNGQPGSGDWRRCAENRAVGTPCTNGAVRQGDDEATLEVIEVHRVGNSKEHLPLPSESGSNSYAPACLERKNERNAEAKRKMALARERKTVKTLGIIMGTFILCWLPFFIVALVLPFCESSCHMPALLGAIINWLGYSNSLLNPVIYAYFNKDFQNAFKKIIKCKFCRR
5-HT2A receptor, sequence (P14842 whole entry): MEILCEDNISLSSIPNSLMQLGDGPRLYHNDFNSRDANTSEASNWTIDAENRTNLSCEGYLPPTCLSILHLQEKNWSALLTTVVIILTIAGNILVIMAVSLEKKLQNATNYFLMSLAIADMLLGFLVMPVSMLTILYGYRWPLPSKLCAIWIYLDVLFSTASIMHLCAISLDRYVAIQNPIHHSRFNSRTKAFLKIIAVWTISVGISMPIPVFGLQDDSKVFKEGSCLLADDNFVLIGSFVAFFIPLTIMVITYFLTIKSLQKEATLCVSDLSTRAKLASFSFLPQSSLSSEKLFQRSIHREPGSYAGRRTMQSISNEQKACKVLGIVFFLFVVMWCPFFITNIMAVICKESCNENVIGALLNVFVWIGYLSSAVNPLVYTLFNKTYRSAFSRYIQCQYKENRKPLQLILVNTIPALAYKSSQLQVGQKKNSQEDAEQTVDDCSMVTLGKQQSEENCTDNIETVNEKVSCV

For one experiment, the target named is 5-HT1A receptor (Rattus norvegicus (Rat), UniProt P19327). The experiment is described as follows: Binding to 5-HT1A receptor ([3H]-8-OH-DPAT, rat cortical membranes). Details: species or system Sprague-Dawley (SD) rats. The settings on record: 2 nM [3H]-8-OH-DPAT; read-out: 5-HT1A: IC50 (Concentration required to be 50% suppressed). The protocol:
Binding to 5-HT1A Receptor
6-week-old Sprague-Dawley (SD) rats were anesthetized in an ether container for 5 minutes, brains were separated from rats, and cortical regions were then separated from the brains of the rats. The cortical regions of the rats were put into a Tris-HCl buffer solution (50 mM, pH 7.4) and homogenized, and the homogenate was centrifuged twice at 4? at a rotary speed of 50,000 g to obtain a precipitate (membrane protein). The precipitate was put into a buffer solution, and homogenized, which was used later as a protein source. 2 nM [3H]-8-OH-DPAT was used as a radioactive isotope, and 10 uM serotonin was used to remove non-specific bindings. 25 ul of the compound, 100 ul of an aqueous radioactive isotope solution, and 100 ul of the protein source were put together, and kept at 25° C. for 1 hour. The resulting mixture was filtered with a membrane filter in a 96-well harvester when the 96-well plate reaction was completed. The competitivity of the compound to [3H]-8-OH-DPAT was determined by taking the membrane filter and measuring the radioactivity of the membrane filter in a scintillation counter, and an IC50 value was determined by measuring the increasing concentration of the compound. The specific reaction of the compound accounted for 90% or more. The general experiments were carried out according to the method by Middlemiss et al. (1984, Eur. J. Pharmacol.).
With `NC(=O)OC(CCN1CCN(c2ccccc2)CC1)c1ccccc1` (stereo not drawn) [Example 1, Carbamic acid 1-phenyl-3-(4-phenyl-piperazin-1-yl)-propyl ester], the IC50 came out at 434 nM.
Same read-out and setting: the same measure for `NC(=O)OC(CCN1CCN(c2ccc([N+](=O)[O-])cc2)CC1)c1ccccc1` (stereo not drawn) [Example 16, Carbamic acid 1-phenyl-3-[4-(4-nitro-phenyl)-piperazin-1-yl]-propyl ester]: 6570 nM; for `COc1ccc(N2CCN(CCC(OC(N)=O)c3ccccc3)CC2)cc1` (stereo not drawn) [Example 20, Carbamic acid 3-[4-(4-methoxy-phenyl)-piperazin-1-yl]-1-phenyl-propyl ester]: 19800 nM; for `NC(=O)OC(CCN1CCN(c2ccccc2F)CC1)c1ccccc1` (stereo not drawn) [Example 41, Carbamic acid 3-[4-(2-fluoro-phenyl)-piperazin-1-yl]-1-phenyl-propyl ester]: 160 nM.
Still for that read-out and setting: the same measure for `NC(=O)OC(CCCN1CCN(c2ccccc2)CC1)c1ccccc1` (stereo not drawn) [Example 94, Carbamic acid 1-phenyl-4-(4-phenyl-piperazin-1-yl)-butyl ester]: 89.8 nM.
As for `COc1ccc(N2CCN(CC[C@@H](OC(N)=O)c3ccccc3)CC2)cc1` [Example 102, (R)-carbamic acid 3-[4-(4-methoxy-phenyl)-piperazin-1-yl]-1-phenyl-propyl ester], the IC50 was determined as 4310 nM.

Still in this experiment, the particulars now being: 1 h; at 1 uM; read-out: 5-HT1A: Suppression.
Consider `NC(=O)OC(CCN1CCN(c2ccccc2)CC1)c1ccc(Cl)cc1` (stereo not drawn) [Example 2, Carbamic acid 1-(4-chloro-phenyl)-3-(4-phenyl-piperazin-1-yl)-propyl ester], for which the inhibition at 1 µM amounted to 64.6%.
Take `NC(=O)OC(CCN1CCN(c2ccccc2)CC1)c1ccc(F)cc1` (stereo not drawn) [Example 6, Carbamic acid 1-(4-fluoro-phenyl)-3-(4-phenyl-piperazin-1-yl)-propyl ester]: the inhibition at 1 µM turned out to be 65.5%.
Turning to `NC(=O)OC(CCN1CCN(c2ccccc2)CC1)c1ccc([N+](=O)[O-])cc1` (stereo not drawn) [Example 9, Carbamic acid 1-(4-nitro-phenyl)-3-(4-phenyl-piperazin-1-yl)-propyl ester], the inhibition at 1 µM stood at 81.4%.

The subject of the next experiment is male ICR mouse. Kind of experiment: Formalin test - late phase in mouse. Particulars: ip, unit inferred. It counts as in vivo.
Turning to `NC(=O)OC(CCCN1CCN(c2ccccc2)CC1)c1ccccc1` (stereo not drawn) [Example 94, Carbamic acid 1-phenyl-4-(4-phenyl-piperazin-1-yl)-butyl ester], the ED50 came to 2.79 mg/kg.

The target of the next experiment is 5-HT2A receptor (Rattus norvegicus (Rat), UniProt P14842). The experiment is described as follows: Binding to 5-HT2A receptor ([3H]-Ketanserin, rat cortical membranes). Also noted: species or system Sprague-Dawley (SD) rats. The settings on record: 0.5 nM [3H]-Ketanserin; read-out: 5-HT2A: IC50 (Concentration required to be 50% suppressed). The procedure:
Binding to 5-HT2A Receptor
6-week-old Sprague-Dawley (SD) rats were anesthetized in an ether container for 5 minutes, brains were separated from rats, and cortical regions were then separated from the brains of the rats. The cortical regions of the rats were put into a Tris-HCl buffer solution (50 mM, pH 7.7) and homogenized, and the homogenate was centrifuged twice at 4° C. at a rotary speed of 50,000 g to obtain a precipitate (membrane protein). The precipitate was put into a buffer solution, and homogenized, which was used later as a protein source. 0.5 nM [3H]-Ketanserin was used as a radioactive isotope, and 10 uM serotonin was used to remove non-specific bindings. 25 ul of the compound, 100 ul of an aqueous radioactive isotope solution, and 100 ul of the protein source were put together, and kept at 25° C. for 1 hour. The resulting mixture was filtered with a membrane filter in a 96-well harvester when the 96-well plate reaction was completed. The competitivity of the compound to [3H]-Ketanserin was determined by taking the membrane filter and measuring the radioactivity in a scintillation counter, and an IC50 value was determined by measuring the increasing concentration of the compound. The specific reaction of the compound accounted for 90% or more. The general experiments were carried out according to the method by Leysen et al. (1982, Eur. J. Pharmacol).
For the compound `NC(=O)OC(CCN1CCN(c2ccccc2)CC1)c1ccccc1` (stereo not drawn) [Example 1, Carbamic acid 1-phenyl-3-(4-phenyl-piperazin-1-yl)-propyl ester], the IC50 was 139 nM.
Consider `NC(=O)OC(CCN1CCN(c2ccc([N+](=O)[O-])cc2)CC1)c1ccccc1` (stereo not drawn) [Example 16, Carbamic acid 1-phenyl-3-[4-(4-nitro-phenyl)-piperazin-1-yl]-propyl ester], for which the IC50 is 2050 nM.
Same read-out and setting: the same measure for `COc1ccc(N2CCN(CCC(OC(N)=O)c3ccccc3)CC2)cc1` (stereo not drawn) [Example 20, Carbamic acid 3-[4-(4-methoxy-phenyl)-piperazin-1-yl]-1-phenyl-propyl ester]: 5850 nM.
The same measure, in the same setting: the same measure for `NC(=O)OC(CCN1CCN(c2ccccc2F)CC1)c1ccccc1` (stereo not drawn) [Example 41, Carbamic acid 3-[4-(2-fluoro-phenyl)-piperazin-1-yl]-1-phenyl-propyl ester]: 110 nM; for `NC(=O)OC(CCCN1CCN(c2ccccc2)CC1)c1ccccc1` (stereo not drawn) [Example 94, Carbamic acid 1-phenyl-4-(4-phenyl-piperazin-1-yl)-butyl ester]: 514 nM; for `COc1ccc(N2CCN(CC[C@@H](OC(N)=O)c3ccccc3)CC2)cc1` [Example 102, (R)-carbamic acid 3-[4-(4-methoxy-phenyl)-piperazin-1-yl]-1-phenyl-propyl ester]: 2780 nM.

Still in this experiment, the particulars now being: 1 h, read-out: 5-HT2A: Suppression.
For `NC(=O)OC(CCN1CCN(c2ccccc2)CC1)c1ccc(Cl)cc1` (stereo not drawn) [Example 2, Carbamic acid 1-(4-chloro-phenyl)-3-(4-phenyl-piperazin-1-yl)-propyl ester], the inhibition at 1 µM turned out to be 84.6%.
As for `NC(=O)OC(CCN1CCN(c2ccccc2)CC1)c1ccc(F)cc1` (stereo not drawn) [Example 6, Carbamic acid 1-(4-fluoro-phenyl)-3-(4-phenyl-piperazin-1-yl)-propyl ester], the inhibition at 1 µM came to 84.7%.
Still for that read-out and setting: the same measure for `NC(=O)OC(CCN1CCN(c2ccccc2)CC1)c1ccc([N+](=O)[O-])cc1` (stereo not drawn) [Example 9, Carbamic acid 1-(4-nitro-phenyl)-3-(4-phenyl-piperazin-1-yl)-propyl ester]: 88%.

The next experiment concerns male ICR mouse. The experiment is described as follows: Formalin test - late phase in mouse. It counts as in vivo. Particulars: po, unit inferred. The protocol: 3. Formalin Test—Late Phase in Mouse
A formalin test is another model for measuring an analgesic effect of drugs. […] These pain behaviors have a biphasic pattern, and therefore they are divided into an early-phase behavior within […] after the formalin administration; and a late-phase behavior up to 10 to 60 minutes. The medicinal effect observed in the formalin test-late phase means an analgesic effect of the test material in the inflammatory pain model, and also becomes a measure that may predict the medicinal effects in the neuropathic pain model (Vissers K et. al, 2003). A test material was orally administered to a male ICR mouse weighing 30 to 35 g. After 1 hour of the oral administration, 20 μl of a 2.5% formalin solution was subcutaneously injected into the planta surface of a mouse's hindlimb to induce pain. […] The analgesic effect of the test material is represented by the ‘suppression ratio of pain response’ {[(Pain response time of Vehicle-administered group−Pain response time of Test material-administered group)/(Pain response time of Vehicle-administered group)]×100%}, or ‘50% of Effective amount (ED50; an amount of a test material that is required to suppress 50% of pain behaviors) of Test material’. The ED50 (median effective dose) was determined by calculating the suppression ratio of pain response in at least three doses of test materials and subjecting to the linear regression.
Regarding `NC(=O)OC(CCN1CCN(c2ccccc2)CC1)c1ccccc1` (stereo not drawn) [Example 1, Carbamic acid 1-phenyl-3-(4-phenyl-piperazin-1-yl)-propyl ester], the 50% effect level (ED50) was put at a dose of 8.43 mg/kg.
Still for that read-out and setting: the same measure for `NC(=O)OC(CCN1CCN(c2ccccc2)CC1)c1ccc(Cl)cc1` (stereo not drawn) [Example 2, Carbamic acid 1-(4-chloro-phenyl)-3-(4-phenyl-piperazin-1-yl)-propyl ester]: 2.2 mg/kg.
The same measure, in the same setting: the same measure for `NC(=O)OC(CCN1CCN(c2ccccc2)CC1)c1ccc(F)cc1` (stereo not drawn) [Example 6, Carbamic acid 1-(4-fluoro-phenyl)-3-(4-phenyl-piperazin-1-yl)-propyl ester]: 4.45 mg/kg; for `NC(=O)OC(CCN1CCN(c2ccccc2)CC1)c1ccc([N+](=O)[O-])cc1` (stereo not drawn) [Example 9, Carbamic acid 1-(4-nitro-phenyl)-3-(4-phenyl-piperazin-1-yl)-propyl ester]: 2.39 mg/kg.
The same measure, in the same setting: the same measure for `NC(=O)OC(CCN1CCN(c2ccc([N+](=O)[O-])cc2)CC1)c1ccccc1` (stereo not drawn) [Example 16, Carbamic acid 1-phenyl-3-[4-(4-nitro-phenyl)-piperazin-1-yl]-propyl ester]: 11.6 mg/kg; for `COc1ccc(N2CCN(CCC(OC(N)=O)c3ccccc3)CC2)cc1` (stereo not drawn) [Example 20, Carbamic acid 3-[4-(4-methoxy-phenyl)-piperazin-1-yl]-1-phenyl-propyl ester]: 5.77 mg/kg; for `NC(=O)OC(CCN1CCN(c2ccccc2F)CC1)c1ccccc1` (stereo not drawn) [Example 41, Carbamic acid 3-[4-(2-fluoro-phenyl)-piperazin-1-yl]-1-phenyl-propyl ester]: 33.2 mg/kg.
`COc1ccc(N2CCN(CC[C@@H](OC(N)=O)c3ccccc3)CC2)cc1` [Example 102, (R)-carbamic acid 3-[4-(4-methoxy-phenyl)-piperazin-1-yl]-1-phenyl-propyl ester] had an ED50 of 4.77 mg/kg.
In turn, `COc1ccc(N2CCN(CC[C@H](OC(N)=O)c3ccccc3)CC2)cc1` [Example 106, (S)-carbamic acid 3-[4-(4-methoxy-phenyl)-piperazin-1-yl]-1-phenyl-propyl ester] showed an ED50 of 12.5 mg/kg.

The next experiment concerns male ICR mouse. Kind of experiment: Acetic acid-induced writhing test in mouse. It counts as in vivo. Particulars: Mus musculus, po, 1 h, at 10 po (method: 10 mg/kg oral, 1 hour before acetic acid); read-out: AA Writhing: Suppression ratio of Pain response. The procedure, abridged: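 Male ICR mice (30 to 35 g) dosed orally at 10 mg/kg, then given 0.8% acetic acid i.p. 1 h later. Writhes counted for 10 min and expressed as % suppression against vehicle. ED50 derived by linear regression over at least three doses.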
On the technique in general: In writhing tests, fewer writhes than in controls are read as antinociception.
Take `NC(=O)OC(CCN1CCN(c2ccccc2)CC1)c1ccc([N+](=O)[O-])cc1` (stereo not drawn) [Example 9, Carbamic acid 1-(4-nitro-phenyl)-3-(4-phenyl-piperazin-1-yl)-propyl ester]: the inhibition in vivo at 10 mg/kg was found to be 91%.

The same experiment, now with this note: Mus musculus; ip; unit not given (method doses in mg/kg); read-out: AA Writhing: ED50.
As for `NC(=O)OC(CCN1CCN(c2ccc([N+](=O)[O-])cc2)CC1)c1ccccc1` (stereo not drawn) [Example 16, Carbamic acid 1-phenyl-3-[4-(4-nitro-phenyl)-piperazin-1-yl]-propyl ester], the ED50 is 2.92 mg/kg.
On the same count and under the same terms, the same measure for `NC(=O)OC(CCN1CCN(c2ccccc2F)CC1)c1ccccc1` (stereo not drawn) [Example 41, Carbamic acid 3-[4-(2-fluoro-phenyl)-piperazin-1-yl]-1-phenyl-propyl ester]: 0.34 mg/kg; for `NC(=O)OC(CCCN1CCN(c2ccccc2)CC1)c1ccccc1` (stereo not drawn) [Example 94, Carbamic acid 1-phenyl-4-(4-phenyl-piperazin-1-yl)-butyl ester]: 0.25 mg/kg.
Regarding `COc1ccc(N2CCN(CC[C@H](OC(N)=O)c3ccccc3)CC2)cc1` [Example 106, (S)-carbamic acid 3-[4-(4-methoxy-phenyl)-piperazin-1-yl]-1-phenyl-propyl ester], the median effective dose (ED50) came out at 1.43 mg/kg.

The same experiment, now with this note: Mus musculus; po; unit not given (method doses in mg/kg); read-out: AA Writhing: ED50.
With `NC(=O)OC(CCN1CCN(c2ccccc2)CC1)c1ccccc1` (stereo not drawn) [Example 1, Carbamic acid 1-phenyl-3-(4-phenyl-piperazin-1-yl)-propyl ester], the ED50 was determined as 6.31 mg/kg.
The same measure, in the same setting: the same measure for `NC(=O)OC(CCN1CCN(c2ccccc2)CC1)c1ccc(Cl)cc1` (stereo not drawn) [Example 2, Carbamic acid 1-(4-chloro-phenyl)-3-(4-phenyl-piperazin-1-yl)-propyl ester]: 2.14 mg/kg.
Turning to `NC(=O)OC(CCN1CCN(c2ccccc2)CC1)c1ccc(F)cc1` (stereo not drawn) [Example 6, Carbamic acid 1-(4-fluoro-phenyl)-3-(4-phenyl-piperazin-1-yl)-propyl ester], the ED50 amounted to 2.79 mg/kg.
`COc1ccc(N2CCN(CCC(OC(N)=O)c3ccccc3)CC2)cc1` (stereo not drawn) [Example 20, Carbamic acid 3-[4-(4-methoxy-phenyl)-piperazin-1-yl]-1-phenyl-propyl ester]: the ED50 came to 3.12 mg/kg.
As for `NC(=O)OC(CCCN1CCN(c2ccccc2)CC1)c1ccccc1` (stereo not drawn) [Example 94, Carbamic acid 1-phenyl-4-(4-phenyl-piperazin-1-yl)-butyl ester], the ED50 amounted to 3.61 mg/kg.
With `COc1ccc(N2CCN(CC[C@@H](OC(N)=O)c3ccccc3)CC2)cc1` [Example 102, (R)-carbamic acid 3-[4-(4-methoxy-phenyl)-piperazin-1-yl]-1-phenyl-propyl ester], the 50% effective dose (ED50) stood at 3.15 mg/kg.

A word on the ED50: it is the dose at which the effect has come halfway, by size or by number of responders.
